Patent US7115584B2, “HIV-1 mutations selected for by β-2′,3′-didehydro-2′,3′-dideoxy-5-fluorocytidine” (priority 1999, dated 2006)
Read-outs that look alike come from different tables or passages of the source.

How the values were obtained:
[1] = tested on: acutely infected human PBM cells; test: Median effect and combination index analysis, alone and in combination; type: cell-based; details: PBMC, 144 h
HIV-1LAV = test: Effect against HIV-1 and cloned viruses in human PBM cells; type: cell-based
M184VPITT = test: as above; type: cell-based
[2] = tested on: 4X AZTPITT (67N, 70R, 215Y, 219Q); test: as above; type: cell-based
M184V/T215YPITT = test: as above; type: cell-based
215/41PITT = test: as above; type: cell-based
[3] = tested on: G2-2PITT (103N, 41L, 184V, 210W, others); test: Effect against cloned viruses, in MT-2 cells; type: cell-based, HIV-1; design: unit not given beside the values
xxBRUPITT = test: Effect against HIV-1 and cloned viruses in human PBM cells; type: cell-based
T215YPITT = test: as above; type: cell-based
[4] = EC50 resistant virus vs HIV-1LAV or xxBRUPITT, listed as β-D-D4FC

Cc1cn([C@H]2C[C@H](N=[N+]=[N-])[C@@H](CO)O2)c(=O)[nH]c1=O [AZT, 3′-azido-3′-deoxythymidine]
EC90 [1]: 32 nM

Nc1nc(=O)n([C@H]2C=C[C@@H](CO)O2)cc1F [D-D4FC, β-2′,3′-didehydro-2′,3′-dideoxy-5-fluorocytidine]
EC50 (HIV-1LAV; listed as β-D-D4FC): 220 nM | EC90 (HIV-1LAV; listed as β-D-D4FC): 1320 nM | FI50 (M184VPITT; [4]): 2 | FI50 ([2]; 4X AZTPITT, EC50 resistant virus vs HIV-1LAV or xxBRUPITT): 1 | FI90 ([2]; 4X AZTPITT, EC90 resistant virus vs HIV-1LAV or xxBRUPITT): 1 | EC90 ([2]; human PBM cells, 4X AZTPITT (67N, 70R, 215Y, 219Q), listed as β-D-D4FC): 460 nM | FI50 (M184V/T215YPITT; [4]): 1 | FI90 (M184V/T215YPITT; EC90 resistant virus vs HIV-1LAV or xxBRUPITT, listed as β-D-D4FC): 1 | FI90 (215/41PITT; EC90 resistant virus vs HIV-1LAV or xxBRUPITT): 1 | FI50 ([3]; listed as β-D-D4FC): 0.2

Nc1nc(=O)n([C@H]2C=C[C@@H](CO)O2)cc1F [β-L-D4FC, β-2′,3′-didehydro-2′,3′-dideoxy-5-fluorocytidine]
EC50 (HIV-1LAV): 34 nM | EC90 (HIV-1LAV): 160 nM | EC50 (xxBRUPITT): 25 nM | EC90 (xxBRUPITT): 88 nM | EC50 (M184VPITT; human PBM cells): 3660 nM | EC90 (M184VPITT; human PBM cells): 14300 nM | EC50 (T215YPITT): 4.7 nM | EC90 (T215YPITT): 30 nM | EC50 (M184V/T215YPITT; human PBM cells): 8300 nM | EC90 (M184V/T215YPITT; human PBM cells): 74600 nM | EC50 (215/41PITT; human PBM cells): 18 nM | EC90 (215/41PITT; human PBM cells): 66 nM | FI50 [3]: >47
